What all share (assay): inhibition of tumour cell growth, NCI panel, 48 h
The subject of test [1] is IGROV1 ovarian.
The test system of test [2] is DMS 273 small cell lung.
Test [3] has as its system ACHN renal.
Test [4] deals with HT29 colon.
The subject of test [5] is HOP-92 NSCLC.
The test system of test [6] is DLD-1 colon.
The subject of test [7] is SK-MEL-28 melanoma.
Test [8] deals with CAKI-1 renal.
The test system of test [9] is HL-60(TB) leukemia.
Test [10] concerns MCF7 breast.

Each structure is given as a SMILES string.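 The compound was tested at five concentrations on cells cultured in 96-well plates, with a 48-hour exposure period. The concentration for 50% growth inhibition is given as GI50. TGI: concentration producing complete growth inhibition.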 A value given as a limit tells only on which side of the number the result lay.

For `CC1=Cc2cc3[n-]c(cc4nc(cc5[n-]c(cc1n2)cc5C)C(C)=C4CCC(=O)O)c(CCC(=O)O)c3C.[Pd+2]`, the GI50 was 14.2 µM in [1]; 12 µM in [2]; 6.31 µM in test [3]; 14.8 µM in test [4]; 14.5 µM in test [6]; 3.06 µM in test [7]. In addition, the figures for the GI50 in [8], in test [9] and in [10] were 27 µM, 7.21 µM and greater than 100 µM, respectively. The TGI was 25.6 µM in [1]; 32.7 µM in [2]; 16.6 µM in [3]; 36.3 µM in test [4]; greater than 23.8 µM in test [5]; 35.8 µM in test [6]. In addition, the TGI is 12.7 µM in [7], 48.6 µM in [8], 14.2 µM in [9] and greater than 100 µM in test [10].

Take `C=C1CC[C@@H]2C(C)(C)CCC[C@@]2(C)[C@@H]1Cc1cc(O)ccc1O`: the TGI in test [1] was determined as 5.65 µM; in test [2] it was 19.4 µM; in test [3], 11.8 µM; in test [4] it was 32.6 µM; in test [5], 10.6 µM; in [6], 18.1 µM. Also, the TGI came to 9.83 µM in test [7], 22.2 µM in test [8] and 4.67 µM in [9].

As to `CS(=O)c1ccc(COP(N)(=O)N(CCCl)CCCl)cc1` (stereo unspecified), the TGI in [1], in test [2], in test [3], in test [4], in test [5] and in test [6] was greater than 100 µM throughout. Further, the TGI in test [7], in test [8] and in [9] was greater than 100 µM each time.

In the case of `O=[N+]([O-])C1C2C=CC(C2)[C@H]1c1ccccc1Cl` (stereo partly specified), the TGI in test [1] is greater than 31.6 µM; in test [2], greater than 100 µM; in test [3], greater than 100 µM; in test [4], greater than 100 µM; in test [5] it was greater than 75.6 µM; in [6] it was greater than 100 µM. For the same compound, the results for the TGI in [7], in test [8] and in [9] were greater than 100 µM, greater than 10 µM and greater than 92.5 µM, respectively.

Take `CN(c1ccccc1)C(c1ccccc1)C(O)c1ccccc1` (stereo unspecified): the TGI in test [1] stood at 45.4 µM; in [2] it was 34 µM; in test [3] it was 54.4 µM; in test [4], 32.9 µM; in [5] it was 47.8 µM; in test [6], 47.5 µM. The TGI in test [7] is 41.7 µM; in test [8], 47.7 µM; in test [9] it was 37.7 µM.

With `ON=C1CCC(c2ccccc2)CC1` (stereo unspecified), the TGI in [1], in test [2], in [3], in test [4], in test [5] and in test [6] was greater than 100 µM in each case. Also, the TGI in test [7], in test [8] and in [9] was greater than 100 µM in each case.

Take `COc1ccc(/C=C2/C[N+](C)(C)C/C(=C/c3ccc(OC)cc3)C2=O)cc1`: the TGI in [1] was 64.7 µM; in test [2], 51.3 µM; in test [3], greater than 100 µM; in test [4], greater than 100 µM; in test [5], greater than 100 µM; in test [6], greater than 100 µM. In addition, the TGI is 18.6 µM in [7], greater than 100 µM in [8] and 44.4 µM in [9].

For the compound `O=S1(=O)C[C@@H](O)[C@H](O)CS1`, the TGI in [1], in test [2], in [3], in [4], in [5] and in [6] was greater than 100 µM in each case. Besides, the TGI in [7], in test [8] and in [9] was greater than 100 µM each time.

For `O=C(O)c1cc2c(cn1)[nH]c1ccccc12`, the TGI in [1], in [2], in test [3], in test [4], in [5] and in test [6] was greater than 100 µM throughout. The TGI in test [7], in test [8] and in test [9] was greater than 100 µM throughout.

Consider `COC(=O)c1nc(NC#N)[nH]c(=O)c1C`, for which the TGI in test [1], in test [2], in test [3], in test [4], in [5] and in test [6] was greater than 100 µM in each case. The TGI in [7], in test [8] and in test [9] was greater than 100 µM in each case.

Turning to `O=C(c1ccccc1)c1c(C(=O)c2ccccc2)c(-c2ccccc2)c2c(-c3ccccc3)sc(-c3ccccc3)c2c1-c1ccccc1`, the TGI in test [1], in test [2], in [3], in test [4], in test [5] and in test [6] was greater than 100 µM in each case. The TGI in [7], in test [8] and in test [9] was greater than 100 µM in each case.

In the case of `Nc1c(-c2nc3ccccc3[nH]2)sc(=S)n1-c1ccccc1`, the TGI in test [1], in test [2], in [3], in [4], in [5] and in test [6] was greater than 100 µM each time. Besides, the TGI in test [7], in test [8] and in test [9] was greater than 100 µM each time.

Take `Cc1c2cc[nH]c(=O)c2cc2c(=O)c3cnccc3[nH]c12`: the TGI in [1], in [2], in test [3], in test [4], in test [5] and in [6] was greater than 100 µM in each case. In addition, the TGI in [7], in test [8] and in test [9] was greater than 100 µM in each case.

Consider `O=C1OC2(c3ccccc3Oc3ccccc32)c2ccccc21`, for which the TGI in [1], in test [2], in test [3], in test [4], in test [5] and in [6] was greater than 100 µM throughout. For the same compound, the TGI in test [7], in [8] and in test [9] was greater than 100 µM in each case.

On to `CCOC(CN=c1nc(N(C)C)ss1)OCC`, for which the TGI in test [1] was greater than 100 µM; in test [2], greater than 67.9 µM; in test [3], 58.7 µM; in [4] it was 17.5 µM; in [5], 36 µM; in [6] it was greater than 50.8 µM. Moreover, the TGI in test [7] was 58.9 µM; in test [8] it was 41.3 µM; in [9], 12 µM; in [10] it was greater than 65.3 µM.

Values taken from PubChem BioAssay (NCI).
